# Calls of active or inactive are those of the source. Unless noted, the calls are words filed in the database; no cut-off is given here.
# What was measured:
# Format in all cases: functional
# [1] = Vero cell cytotoxicity, cytotoxicity control for M. tuberculosis inhibitor project, purified and synthesized samples, set 3 (AID 504684)
# [2] = THP-1 cell cytotoxicity, dose response, cytotoxicity control, set 3 (AID 504852); conditions: Mycobacterium tuberculosis
# [3] = THP-1 cell cytotoxicity, cytotoxicity control, set 4 (AID 504911); conditions: Mycobacterium tuberculosis
# [4] = target: Sphingosine 1-phosphate receptor 3 (Homo sapiens, UniProt Q99500); assay: Late-stage fluorescence-based dose-response cell-based counterscreen assay to identify agonists of the Sphingosine 1-Phosphate Receptor 4 (S1P4): Sphingosine 1-Phosphate Receptor 3 (S1P3) agonist assay Set 2.
# Chain of Sphingosine 1-phosphate receptor 3 (Q99500 whole entry): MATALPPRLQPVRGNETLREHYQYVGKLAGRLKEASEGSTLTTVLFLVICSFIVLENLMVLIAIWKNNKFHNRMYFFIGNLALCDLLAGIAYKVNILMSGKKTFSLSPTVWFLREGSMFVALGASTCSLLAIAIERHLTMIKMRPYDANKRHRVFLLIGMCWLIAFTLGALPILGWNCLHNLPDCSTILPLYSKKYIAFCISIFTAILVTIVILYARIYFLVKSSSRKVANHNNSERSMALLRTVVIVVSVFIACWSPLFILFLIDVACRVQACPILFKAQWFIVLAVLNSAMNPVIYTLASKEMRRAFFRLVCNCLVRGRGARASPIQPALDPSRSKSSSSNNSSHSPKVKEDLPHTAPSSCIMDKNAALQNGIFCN
# [5] = target: Sphingosine 1-phosphate receptor 2 (Homo sapiens, UniProt O95136); assay: activation of human S1P2 receptor – cell-based, fluorescence, set 2, counter-screen for S1P4 agonist project, late-stage follow-up (AID 504873)
# Chain of Sphingosine 1-phosphate receptor 2 (O95136 whole entry): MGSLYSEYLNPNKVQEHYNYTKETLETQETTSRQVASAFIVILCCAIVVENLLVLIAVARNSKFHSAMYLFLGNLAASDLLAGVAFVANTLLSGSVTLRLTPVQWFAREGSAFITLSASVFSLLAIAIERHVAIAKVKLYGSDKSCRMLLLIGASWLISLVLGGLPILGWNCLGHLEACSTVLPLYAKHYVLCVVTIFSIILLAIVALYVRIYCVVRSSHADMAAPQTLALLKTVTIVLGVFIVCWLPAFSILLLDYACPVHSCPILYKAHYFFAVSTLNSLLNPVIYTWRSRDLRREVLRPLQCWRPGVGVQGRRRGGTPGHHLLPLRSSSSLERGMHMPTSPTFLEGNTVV
# [6] = target: Sphingosine 1-phosphate receptor 1 (Homo sapiens, UniProt P21453); assay: Late-stage fluorescence-based dose-response cell-based counterscreen assay to identify agonists of the Sphingosine 1-Phosphate Receptor 4 (S1P4): Sphingosine 1-Phosphate Receptor 1 (S1P1) agonist assay Set 2.
# Chain of Sphingosine 1-phosphate receptor 1 (P21453 whole entry): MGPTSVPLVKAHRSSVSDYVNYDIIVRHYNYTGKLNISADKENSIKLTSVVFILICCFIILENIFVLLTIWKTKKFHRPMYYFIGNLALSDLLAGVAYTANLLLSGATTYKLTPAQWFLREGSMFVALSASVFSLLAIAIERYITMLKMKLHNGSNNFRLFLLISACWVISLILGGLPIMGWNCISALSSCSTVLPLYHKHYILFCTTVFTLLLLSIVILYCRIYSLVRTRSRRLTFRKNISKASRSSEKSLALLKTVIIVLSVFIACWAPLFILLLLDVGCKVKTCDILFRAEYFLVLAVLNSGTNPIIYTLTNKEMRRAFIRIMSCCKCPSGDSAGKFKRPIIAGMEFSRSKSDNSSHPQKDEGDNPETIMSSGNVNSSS
# [7] = target: Sphingosine 1-phosphate receptor 5 (Homo sapiens, UniProt Q9H228); assay: activation of human S1P5 receptor – cell-based, fluorescence, set 2, counter-screen for S1P4 agonist project, late-stage follow-up (AID 504867)
# Chain of Sphingosine 1-phosphate receptor 5 (Q9H228 whole entry): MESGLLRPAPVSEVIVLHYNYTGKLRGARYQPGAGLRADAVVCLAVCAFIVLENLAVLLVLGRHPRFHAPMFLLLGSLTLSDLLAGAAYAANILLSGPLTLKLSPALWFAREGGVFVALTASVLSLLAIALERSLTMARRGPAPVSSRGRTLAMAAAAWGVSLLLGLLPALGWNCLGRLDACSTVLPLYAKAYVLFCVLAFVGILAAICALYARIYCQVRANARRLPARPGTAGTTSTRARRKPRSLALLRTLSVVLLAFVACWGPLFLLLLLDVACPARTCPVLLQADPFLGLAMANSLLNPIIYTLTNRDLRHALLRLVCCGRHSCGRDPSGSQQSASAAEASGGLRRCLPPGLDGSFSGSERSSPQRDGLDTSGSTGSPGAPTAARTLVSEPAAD
# [8] = target: DNA dC->dU-editing enzyme APOBEC-3G (Homo sapiens, UniProt Q9HC16); assay: inhibition of APOBEC3G ssDNA deamination – biochemical, fluorescence, single-stranded DNA substrate, SAR follow-up (AID 602136); conditions: read-out: IC50_Mean
# Chain of DNA dC->dU-editing enzyme APOBEC-3G (Q9HC16 whole entry): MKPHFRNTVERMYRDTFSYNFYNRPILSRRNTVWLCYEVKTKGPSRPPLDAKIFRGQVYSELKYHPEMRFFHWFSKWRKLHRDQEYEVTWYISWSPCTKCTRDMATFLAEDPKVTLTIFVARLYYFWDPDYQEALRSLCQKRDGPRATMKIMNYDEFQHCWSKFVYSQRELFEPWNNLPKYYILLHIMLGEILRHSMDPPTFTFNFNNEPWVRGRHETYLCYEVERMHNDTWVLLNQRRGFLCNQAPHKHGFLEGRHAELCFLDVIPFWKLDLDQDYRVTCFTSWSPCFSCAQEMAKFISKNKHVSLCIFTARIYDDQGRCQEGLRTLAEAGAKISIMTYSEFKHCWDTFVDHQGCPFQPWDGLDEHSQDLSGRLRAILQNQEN
# [9] = target: DNA dC->dU-editing enzyme APOBEC-3A (Homo sapiens, UniProt P31941); assay: SAR analysis of small molecule inhibitors of APOBEC3A DNA Deaminase via a fluorescence-based single-stranded DNA deaminase assay.; conditions: read-out: IC50_Mean
# Chain of DNA dC->dU-editing enzyme APOBEC-3A (P31941 whole entry): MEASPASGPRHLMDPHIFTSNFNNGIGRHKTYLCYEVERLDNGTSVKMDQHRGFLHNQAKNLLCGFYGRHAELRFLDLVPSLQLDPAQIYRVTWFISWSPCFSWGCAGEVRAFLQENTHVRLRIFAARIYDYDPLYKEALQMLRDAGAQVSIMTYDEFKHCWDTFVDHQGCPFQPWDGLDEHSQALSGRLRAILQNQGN
# [10] = target: T1, Apoptotic protease-activating factor 1 (Homo sapiens, UniProt O14727); assay: SAR analysis of small molecule inhibitors of Apaf-1 in a Fluorescent assay.; conditions: read-out: IC50_Mean
# T1 sequence (O14727 whole entry): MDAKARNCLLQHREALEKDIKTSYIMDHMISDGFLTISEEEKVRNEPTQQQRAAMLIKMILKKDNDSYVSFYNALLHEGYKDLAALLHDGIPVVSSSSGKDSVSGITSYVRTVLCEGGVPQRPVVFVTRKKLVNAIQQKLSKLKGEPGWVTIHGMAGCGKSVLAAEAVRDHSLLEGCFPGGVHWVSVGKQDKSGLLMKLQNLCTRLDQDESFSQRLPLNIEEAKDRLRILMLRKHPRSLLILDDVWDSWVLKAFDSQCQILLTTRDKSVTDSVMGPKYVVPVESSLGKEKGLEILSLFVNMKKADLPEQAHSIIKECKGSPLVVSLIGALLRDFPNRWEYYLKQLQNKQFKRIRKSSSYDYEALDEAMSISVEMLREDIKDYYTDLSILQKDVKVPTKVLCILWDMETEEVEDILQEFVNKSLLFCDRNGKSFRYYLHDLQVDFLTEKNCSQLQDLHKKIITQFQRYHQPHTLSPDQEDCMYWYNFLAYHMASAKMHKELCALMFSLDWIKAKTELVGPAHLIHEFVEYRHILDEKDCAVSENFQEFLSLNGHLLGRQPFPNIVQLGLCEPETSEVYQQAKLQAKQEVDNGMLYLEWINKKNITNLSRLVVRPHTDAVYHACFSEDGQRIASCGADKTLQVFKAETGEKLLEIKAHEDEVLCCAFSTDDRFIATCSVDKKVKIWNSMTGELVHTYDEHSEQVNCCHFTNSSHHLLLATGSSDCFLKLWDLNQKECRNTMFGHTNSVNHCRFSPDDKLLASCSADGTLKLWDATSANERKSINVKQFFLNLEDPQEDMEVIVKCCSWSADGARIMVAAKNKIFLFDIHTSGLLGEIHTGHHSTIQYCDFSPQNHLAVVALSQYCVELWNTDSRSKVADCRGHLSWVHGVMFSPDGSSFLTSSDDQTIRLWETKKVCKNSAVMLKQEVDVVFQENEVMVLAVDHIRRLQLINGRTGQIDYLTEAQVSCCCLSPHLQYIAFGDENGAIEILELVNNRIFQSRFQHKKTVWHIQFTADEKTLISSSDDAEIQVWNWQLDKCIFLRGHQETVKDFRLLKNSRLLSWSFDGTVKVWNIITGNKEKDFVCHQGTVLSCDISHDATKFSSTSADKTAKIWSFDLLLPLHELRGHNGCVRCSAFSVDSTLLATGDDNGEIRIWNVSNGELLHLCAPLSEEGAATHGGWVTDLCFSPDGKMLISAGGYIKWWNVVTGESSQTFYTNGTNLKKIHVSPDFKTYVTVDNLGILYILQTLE
smiles,measurement,setting,value
Cc1[nH]c(SCC(=O)N(C)c2ccccc2)nc(=O)c1C,CC50,[1],> 100 µM (active)
same,CC50,[2],> 100 µM (active)
same,CC50,[3],> 100 µM (active)
CC/N=C1/S/C(=C/c2cc(C)n(-c3ccc(F)cc3F)c2C)C(=O)N1CC,EC50,[4],> 25 µM (inactive)
same,EC50,[5],> 25 µM (inactive)
same,EC50,[6],0.816 µM (active)
same,EC50,[7],6.18 µM (active)
O=C(CSc1nnc2scc(-c3ccc(Cl)cc3)n12)N1CCOCC1,IC50,[8],28 µM (inactive)
same,IC50,[9],> 99 µM (inactive)
O=C(Nc1ccc2c(c1)C(=O)NC2=O)c1nc2ccccc2s1,IC50,[10],> 100 µM (inactive)
